Experiments:
[1] = tested on: Septoria Tritici Blotch (STB) (Zymoseptoria tritici); experiment: glasshouse fungicidal efficacy against Septoria Tritici Blotch on winter wheat; conditions: Abbott's transformation
Method: The study design was a randomized complete block with 4 replicates.
The treatments were applied in accordance with Table 14, and on the day after application, artificial inoculation of the target was performed by spraying the inoculum solution at the concentration of 1×10^6 cfu/ml on the leaves. The compositions were diluted in a water volume equivalent to 400 L/ha.
Analysis of Variance (ANOVA) and a Bartlett test to assume the homogeneity of the treatment variances were performed on each assessment. Data were analyzed using ANOVA.
Evaluations were performed on incidence and severity of Septoria on leaves and transformed into percentage of disease control using the Abbott's transformation.

[2] = tested on: Ramularia (Ramularia collo-cygni) in barley; experiment: fungicidal activity toward Ramularia in barley, protected conditions; type: in vivo
Excerpt: The following fungicides and combination of fungicides are applied to ramularia in barley. The observation was made 10 days after application. The results are shown below: The following fungicides and combination of fungicides are applied to ramularia in barley. The observation was made 24 days after application.

## CC(O)(Cn1cncn1)c1ccc(Oc2ccc(Cl)cc2)cc1C(F)(F)F (stereo not drawn) [Mefentrifluconazole]
[1]; Mefentrifluconazole 100 g AI/ha
  Disease control on severity on leaves: 49.9%

## O=C1c2ccccc2C(=O)N1SC(Cl)(Cl)Cl [Folpet, folpet]
[2]; Folpet 175 g a.i./ha, 10 days after application
  Observed Efficacy: 25.10%
[2]; Folpet 175 g a.i./ha, 24 days after application
  Observed Efficacy: 21.60%
[2]; Folpet 300 g a.i./ha, 10 days after application
  Observed Efficacy: 61.10%
[2]; Folpet 300 g a.i./ha, 24 days after application
  Observed Efficacy: 31.00%
[2]; Folpet 400 g a.i./ha, 10 days after application
  Observed Efficacy: 64.80%
[2]; Folpet 400 g a.i./ha, 24 days after application
  Observed Efficacy: 49.80%
[1]; Folpet 500 g AI/ha
  Disease control on severity on leaves: 41.6%

## Cc1ccc(S(=O)(=O)n2cc(F)c(=N)n(C)c2=O)cc1 [ADF-16]
[2]; ADF-16 25 g a.i./ha, 10 days after application
  Observed Efficacy: 45.70%
[2]; ADF-16 25 g a.i./ha, 24 days after application
  Observed Efficacy: 44.50%
[2]; ADF-16 35 g a.i./ha, 10 days after application
  Observed Efficacy: 55.00%
[2]; ADF-16 35 g a.i./ha, 24 days after application
  Observed Efficacy: 45.60%

Source: US20250089720A1, “FUNGICIDAL MIXTURES COMPRISING COMBINATION CONTAINING PHTHALIMIDE” (Adama Makhteshim Ltd., priority 2022, published 2025)
